For data set [1], the system named is FluA H3N2 HongKong. The experiment in a line: microbe, parasite or virus in culture. Conditions: for EC50: Influenza A virus, H3N2, 48 h, MDCK cells, CPE inhibition, 2 days, positive controls, read-out: Antiviral activity EC50 FluA H3N2 HongKong. The format is cell-based, influenza A virus.
Data set [2] concerns FluB Lee. The experiment in a line: Cytopathic effect (CPE) inhibition test, Flu B Lee. Conditions: read-out: Antiviral activity EC50 FluB Lee, MDCK cells, 2 days, positive controls. (Cytopathic effects are the visible damage that an infection or toxin causes in cultured cells.)
The test system of data set [3] is FluA H1N1 PR8. Nature of the data set: microbe, parasite or virus in culture. The format is cell-based. Conditions: Influenza A virus, 48 h; MDCK cells, CPE inhibition, 2 days; positive controls; read-out: Antiviral activity EC50 FluA H1N1 PR8.
Data set [4] can be described thus: in vitro. Conditions: dog.

The term EC50 denotes the concentration needed to bring the measured effect to its halfway point. In the case of `NC12CC3CC(CC(C3)C1)C2` [AMT, amantadine], the “Selectivity index FluA H3N2 HongKong” value in data set [1] is given as >43.5. Besides, the EC50 in data set [1] is 2.3 µM; in data set [2] it was > 100 µM; in data set [3] it was > 100 µM. Further, the CC50 in data set [4] is > 100 µM.
Consider `NC(=O)c1ncn([C@@H]2O[C@H](CO)[C@@H](O)[C@H]2O)n1` [RBV, ribavirin], for which the half-maximal effective concentration (EC50) in data set [1] stood at 13.4 µM; in data set [2] it was 19.6 µM; in data set [3], 29.9 µM.

The record behind these values is US20220054576A1, “PHARMACEUTICAL COMPOSITION COMPRISING EXTRACT FROM CAMELLIA JAPONICA AS ACTIVE INGREDIENT FOR PREVENTION AND TREATMENT OF VIRAL INFECTION” (HUSCION CO., LTD., priority 2019, published 2022).
